# Measured values: patent US20070015183A1, “Biomarkers for huntington's disease” (The General Hospital Corporation, priority 2005, published 2007)
# What was measured:
# [1] = test system: Huntington's disease symptoms; conditions: HD patients, dose-finding study not powered to detect alterations in symptoms or progression
# Description: (§1) Peripheral blood samples were collected from 62 HD subjects and 53 age- and gender-matched healthy controls. The HD group included a cohort of 9 early asymptomatic carriers of the gene mutation, as determined by genetic testing, consisting of 5 females and 4 males with the average age of 22.5±2.6 years. An additional group of 21 late presymptomatic carriers of the HD mutation was also included in the study. Of these, 11 were females and 10 were males with the average age of 39±6.1. An additional 32 patients were symptomatic, 17 females and 15 males, with the average age of 49.6±5.9. The determination of the neurological status of the HD patients utilized the Huntington's Disease Rating Scale (UHDRS) performed by an experienced HD neurologist. All of the symptomatic patients were in Stage I or II of disease, as determined by the total functional capacity scores (TFC 7-12). All samples were obtained in accordance with the Institutional Review Boards and participants gave written informed consent. Blood samples were also obtained from 12 symptomatic patients (7 males and 5 females) participating in a dose-finding study of the HDAC inhibitor, sodium phenylbutyrate (SPB 11, Scandinavian Designs, Sellersville, Pa.) at Oregon Health and Science University. The dosage of sodium phenylbutyrate in these subjects ranged from 12 to 18 grams per day administered in 3 doses.
# [2] = HD patients, as a result of phenylbutyrate treatments
# Description: as §1
# [3] = test system: 12-gene marker set (ANXA1, AXOT, CAPZA1, HIF1A, JJAZ1, P2Y5, PCNP, ROCK1, SF3B1, SP3, TAF7, YIPPEE) mRNA in blood; conditions: 12 HD patients, after 4 weeks of treatment, QRT-PCR, P<0.05
# Description: as §1
# [4] = test system: transgenic mouse models of HD; conditions: Gardian et al., J. Biol. Chem. 280: 556-563, 2005; cited from earlier work
structure (smiles),measurement,setting,value
"O=C([O-])CCCc1ccccc1.[Na+] [phenylbutyrate, sodium phenylbutyrate]",symptomatic effects,[1],no significant symptomatic effects
same,total and differential cell blood counts,[2],no consistent differences
same,expression of each individual gene of the marker set in blood after treatment compared to untreated samples,[3],8 out of 12 genes were significantly decreased and statistically significant decrease in expression of 8 out of 12 genes
same,neuroprotective effects,[4],significant neuroprotective effects
